Assay results from patent publication US10550127B1, “Indanylaminoazadihydrobenzofuranylacetic acids, pharmaceutical compositions for the treatment of diabetes” (Boehringer Ingelheim International GmbH, priority 2017, dated 2020).
pEC50, pIC50: −log10 of the molar value. ≈ marks a conversion by molar mass, not a printed value.

What was measured:
[1] = molecular target: cytochrome P450 2C8-isoenzyme (Homo sapiens (Human), UniProt P10632); assay: Inhibition of CYP-2C8 (amodiaquine deethylation, human liver microsomes); type: in vitro ADME; conditions: amodiaquine 1 μM, 37° C.
cytochrome P450 2C8-isoenzyme, sequence (P10632 whole entry): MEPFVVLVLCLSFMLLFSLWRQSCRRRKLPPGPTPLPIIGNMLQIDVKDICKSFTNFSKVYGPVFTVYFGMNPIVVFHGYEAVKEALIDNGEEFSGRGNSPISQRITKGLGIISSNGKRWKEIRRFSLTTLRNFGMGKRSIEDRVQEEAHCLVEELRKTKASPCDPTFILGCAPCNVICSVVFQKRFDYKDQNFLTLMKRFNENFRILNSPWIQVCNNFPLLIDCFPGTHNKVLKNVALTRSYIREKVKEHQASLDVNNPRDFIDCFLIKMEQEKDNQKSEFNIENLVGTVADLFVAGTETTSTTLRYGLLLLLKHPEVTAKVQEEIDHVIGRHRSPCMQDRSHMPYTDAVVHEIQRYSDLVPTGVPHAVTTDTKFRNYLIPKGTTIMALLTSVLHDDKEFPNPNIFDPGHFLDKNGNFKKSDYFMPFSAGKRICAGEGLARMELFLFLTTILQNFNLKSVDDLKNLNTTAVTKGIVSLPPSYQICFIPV
Procedure: (§1) All assays are carried out on a robotic system in 96 well plates. The final incubation volume contains TRIS buffer (0.1 M), MgCl2 (5 mM), human liver microsomes (0.05 mg/mL), amodiaquine (1 μM) and the test compound at five different concentrations or no compound (high control) in duplicate (e.g. highest concentration 10-50 μM with subsequent serial 1:4 dilutions). Following a short preincubation period, reactions are started with the cofactor (NADPH, 1 mM) and stopped by cooling the incubation down to 8° C. and subsequently by addition of one volume of acetonitrile. An internal standard solution—the stable isotope d5-desethylamodiaquine—is added after quenching of incubations. Peak area analyte (=metabolite formed) and internal standard is determined by LC-MS/MS. The resulting peak area ratio analyte to internal standard in these incubations is compared to a control activity containing no test compound. Within each of the assay runs, the IC50 of a positive control inhibitor (Montelukast) is determined. Experimental IC50 values are calculated by least square regression according to the following equation: % control activity=(100% control activity/(1+(I/IC50)S))−B with I=inhibitor concentration; S=slope factor; B=background activity (lower plateau of the inhibition curve)
If the inhibition of the reaction is already >50% at the lowest concentration of the test compound, the IC50 is assigned “<lowest concentration tested” (usually <0.4 μM). If the inhibition of the reaction is still <50% at the highest concentration of the test compound, the IC50 is assigned “> highest concentration tested” (usually >50 μM).

human GPR40 receptor = human GPR40 receptor (Homo sapiens (Human), UniProt O14842); assay: IP1 accumulation measurements using the IPOne assay system; type: cell-based; conditions: 1321N1 cells stably expressing human GPR40, 1 h stimulation
human GPR40 receptor, sequence (O14842 whole entry): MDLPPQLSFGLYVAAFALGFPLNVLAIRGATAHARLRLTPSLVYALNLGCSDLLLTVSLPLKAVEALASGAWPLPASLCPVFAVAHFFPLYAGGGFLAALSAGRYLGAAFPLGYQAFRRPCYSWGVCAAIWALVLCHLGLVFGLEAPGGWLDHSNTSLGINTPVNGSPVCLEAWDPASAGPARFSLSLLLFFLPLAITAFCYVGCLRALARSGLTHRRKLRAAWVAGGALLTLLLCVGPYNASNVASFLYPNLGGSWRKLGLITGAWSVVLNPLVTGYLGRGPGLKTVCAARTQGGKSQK
Procedure: IP1 accumulation measurements using the IPOne assay system—1321N1 cells stably expressing human GPR40 receptor (Euroscreen, Belgium) are seeded 24 h before the assay in white 384-well plates in culture medium containing 10% FCS, 1% Na-Pyruvate and 400 μg/mL G418. IP1 is assayed according to the manufacturer's description (Cisbio Bioassays, France). In brief, the assay is started by substitution of the culture medium by stimulation buffer (Hepes 10 mM, CaCl2) 1 mM, MgCl2 0.5 mM, KCl 4.2 mM, NaCl 146 mM, glucose 5.5 mM and LiCl 50 mM, pH 7.4). Cells are stimulated for 1 h at 37° C., 5% CO2 by addition of the compounds that are diluted in stimulation buffer containing LiCl. Assays are stopped by adding HTRF-conjugates (IP1-d2 and Anti-IP1 cryptate Tb) and lysis buffer, provided by the manufacturer. After an incubation time of 1 h at room temperature plates are measured using an EnVision™, Perkin Elmer. The obtained fluorescence ratios at 665/615 […] are then used to calculate the pEC50 values using Assay Explorer 3.3 Software (Accelrys, Inc.) by interpolation using an IP1 reference curve and subsequent sigmoidal curve fitting allowing for a variable hill slope.

[2] = molecular target: cytochrome P450 2C9-isoenzyme (Homo sapiens (Human), UniProt P11712); assay: Inhibition of CYP-2C9 (diclofenac hydroxylation, human liver microsomes); type: in vitro ADME; conditions: diclofenac 10 μM, 37° C.
cytochrome P450 2C9-isoenzyme, sequence (P11712 whole entry): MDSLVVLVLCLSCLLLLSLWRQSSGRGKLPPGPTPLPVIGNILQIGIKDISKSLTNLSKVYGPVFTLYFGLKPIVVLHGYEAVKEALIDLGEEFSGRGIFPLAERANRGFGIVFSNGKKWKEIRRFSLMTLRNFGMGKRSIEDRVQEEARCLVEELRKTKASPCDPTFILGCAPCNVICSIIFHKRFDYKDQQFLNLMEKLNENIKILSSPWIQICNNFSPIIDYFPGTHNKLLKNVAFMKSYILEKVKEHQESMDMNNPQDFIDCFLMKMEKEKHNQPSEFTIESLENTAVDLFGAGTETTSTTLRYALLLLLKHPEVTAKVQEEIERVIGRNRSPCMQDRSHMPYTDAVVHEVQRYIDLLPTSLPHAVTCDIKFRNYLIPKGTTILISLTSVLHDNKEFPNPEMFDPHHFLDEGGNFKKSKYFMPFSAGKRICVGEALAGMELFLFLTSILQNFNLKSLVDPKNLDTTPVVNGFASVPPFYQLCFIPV
Procedure: as §1, with “(0.1” for “(0.05”, “diclofenac (10” for “amodiaquine (1”, “(e.g.,” for “(e.g.”, “^13C6-hydroxydiclofenac—is” for “d5-desethylamodiaquine—is”, “(sulfaphenazole)” for “(Montelukast)”, “curve) […]” for “curve)”

Aqueous solubility = type: physicochemical; conditions: aqueous buffer, kinetic from dmso stock, buffer pH 2.2, 24 h shaking, 2.5% DMSO
Procedure: The aqueous solubility of the compounds of the invention is determined by comparing the amount dissolved in buffer to the amount in an acetonitrile/water (1/1) solution. Starting from a 10 mM DMSO stock solution aliquots are diluted with acetonitrile/water (1/1) or buffer, respectively. After 24 h of shaking, the solutions are filtrated and analyzed by LC-UV. The amount dissolved in buffer is compared to the amount in the acetonitrile solution.
Solubility is usually being measured from 0.001 to 0.125 mg/mL at a DMSO concentration of 2.5%. If more than 90% of the compound is dissolved in buffer, the value is marked with “>”.

Compound `Cc1cc(OCCC(C)(C)O)cc(C)c1-c1ccc(F)c2c1CC[C@H]2Nc1cc2c(cn1)[C@H](CC(=O)O)CO2` [Example 1, ((S)-6-{(R)-7-Fluoro-4-[4-(3-hydroxy-3-methyl-butoxy)-2,6-dimethyl-phenyl]-indan-1-ylamino}-2,3-dihydro-furo[3,2-c]pyridin-3-yl)-acetic Acid] has a pIC50 [1] of 4.52, a pEC50 (human GPR40 receptor) of 7.82 and a pIC50 [2] of less than 4.30. It also gave a solubility at 24 h (Aqueous solubility) greater than 0.094 mg/mL.
Compound `Cc1cc(-c2nnn(C)n2)cc(C)c1-c1ccc(F)c2c1CC[C@H]2Nc1cc2c(cn1)[C@H](CC(=O)O)CO2` [Example 5, ((S)-6-{(R)-4-[2,6-Dimethyl-4-(2-methyl-2H-tetrazol-5-yl)-phenyl]-7-fluoro-indan-1-ylamino}-2,3-dihydro-furo[3,2-c]pyridin-3-yl)-acetic Acid] has a pIC50 [1] of 4.46, a pEC50 (human GPR40 receptor) of 8.22 and a pIC50 [2] of less than 4.30. The solubility at 24 h (Aqueous solubility) was 0.047 mg/mL (≈ 91.3 µM).
